The source of these data is patent publication US12053523B2, “Compositions comprising chemotherapeutic agents and checkpoint inhibitors and methods of use” (NORTH CAROLINA STATE UNIVERSITY, priority 2017, dated 2024).

Molecules are shown by their SMILES. Entries after “also recorded” stand apart in the source; their conditions may differ. Structures can show the parent of a compound that is named as a salt.

Data set [1] relates to B16F10 cancer cells. Kind of data set: Treatment of B16F10 cancer cells in vitro with GEM (flow cytometry, immunofluorescence, western blot). The data set is classed as cell-based, mouse. The procedure: FIGS. 7A and 7B show the effects of GEM to cancer cells in vitro.
Circulating type 1 T helper (Th1) cytokines were also measured before and after GEM@Gel implantation (FIG. 6g).
(§1) The mouse melanoma cell line B16F10 and mouse mammary carcinoma cell line 4T1 were purchased from the American Type Culture Collection. B16F10-luc-GFP and 4T1-luc-GFP cells were gifts from Dr. Leaf Huang at the University of North Carolina at Chapel Hill. B16F10 cells were maintained in Dulbecco's Modified Eagle Medium (Gibco, Invitrogen) supplemented with 10% fetal bovine serum (Invitrogen, Carlsbad, CA), 100 U/mL penicillin (Invitrogen), and 100 […] (Invitrogen). 4T1 cells were maintained in RPMI-1640 Medium (Gibco, Invitrogen) supplemented with 10% fetal bovine serum (Invitrogen, Carlsbad, CA), 100 U/mL penicillin (Invitrogen), and 100 […] (Invitrogen). Master and working cell banks were generated immediately upon receipt. The third and fourth passages were used for the experiments. Cells were tested every three months to exclude the presence of mycoplasma. Authentication of cells was not performed after receipt.

In data set [2] the test system is 4T1 cancer cells. Nature of the data set: Effects of GEM in 4T1 cells in vitro (PD-L1 by flow cytometry). The following applies: GEM 0, 1, 2, 5, 10 μM for 48 hours, remaining live cells; hydrochloride. The data set is classed as cell-based, mouse. The procedure:
The data are shown as mean±SD. Error bars are based on at least triplicate measurements. P value: *, P<0.05.
4T1 cells were reported to express low levels of PD-L1. […] For in vivo study, 4T1 were inoculated subcutaneously into the right flank of female BABL/c mice. After 7 days, the mice bearing 4T1 tumors were treated with GEM@Gel (200 μL, 10% w/w) (GEM: 5 mg/kg), aPD-L1@Gel (aPDL1: 50 μg per mouse) or GEM-aPD-L1@Gel (aPD-L1: 50 μg per mouse, GEM: 5 mg/kg).
as §1, with “Authentication of cells was not performed after receipt.” left out

Data set [3] is described as follows: GEM and aPDL1 release from PVA-TSPBA hydrogels. Type of data set: physicochemical. As to conditions: 37° C. The method, then:
FIGS. 1A, 1B, 1C, 1D, 1E, and 1F show a schematic and characterization of in situ formed reactive oxygen species (ROS)-responsive PVA-TSPBA scaffold. […] Scale bar, 0.5 μm. Inset: a zoom-in image of the scaffold. Scale bar, 0.1 μm. […] Scale bar, 25 μm. […] FIGS. 1E and IF show cumulative release profiles of GEM (1e) and aPDL1 (1f) from hydrogels when incubated with PBS with or without H2O2 (1 mM).
The TSPBA can be oxidized and hydrolyzed when exposed to H2O2 in the TME, leading to the dissociation of the polymeric scaffold and the release of PVA and payloads. To verify the ROS-sensitive degradability of the hydrogels, samples were immersed in phosphate-buffered saline (PBS) containing […] H2O2 at 37° C. […] The release profiles of GEM and aPD-L1 were quantified using high-performance liquid chromatography (HPLC) and enzyme-linked immunosorbent assay (ELISA), respectively. […] The release pattern was further examined in vivo after the intratumor injection of the drug-loaded scaffolds in the B16F10 mouse model. […] These distinct release dynamics facilitated the delivery of GEM and aPD-L1 into the TME for the intended sequential effects.
Release studies were performed at 37° C. with constant agitation in PBS. […] The released GEM was analyzed by HPLC and the antibody release was determined by Rat IgG total ELISA kit (eBioscience).

With `Nc1ccn([C@@H]2O[C@H](CO)[C@@H](O)C2(F)F)c(=O)n1` [GEM, Gemcitabine hydrochloride], the “PD-L1 on surviving B16F10 cells” value in data set [1] (GEM 5 μM, within 24 hours) is recorded as “significant PD-L1 upregulation”. For the same molecule, the “Dose and time dependence of PD-L1 expression on B16F10 cancer cells” value in data set [1] (flow cytometry, immunofluorescence, western blot) is “GEM-dose- and time-dependent”. Besides, in data set [1] (in vitro), the “Cell death of B16F10 cancer cells” value is recorded as “resulted in cell death” and the “Expression of PD-L1 in surviving B16F10 cells” value was “increased expression of PD-L1”. The “PD-L1 expression in 4T1 cancer cells” value in data set [2] is given as “induced PD-L1 expression; also recorded: PD-L1 upregulation”. The “Release from the hydrogel in H2O2 solution compared to control PBS” value in data set [3] (H2O2 1 mM vs PBS) was “in a triggered manner”. Also, the “Release of GEM from the hydrogel” value in data set [3] (H2O2 solution (1 mM) in PBS, HPLC) was “great majority of GEM was released within one day”.
